Activity calls are given as the source filed them. The rule behind the calls is not given here.
What was measured:
[1] = test system: SARS-CoV-2; test: Potency index, ratio of Arbidol IC50 to test compound IC50 for antiviral activity against SARS CoV-2 Wuhan infected in African green monkey Vero E6 cells assessed as inhibition of viral replication pretreated for 15 mins followed by compound removal and induction of viral infection for 1 hr and subsequent removal of inoculum and further addition of media containing compound measured after 24 hrs …; type: functional, Severe acute respiratory syndrome coronavirus 2; settings: time 24.25 hrs
[2] = test system: Vero C1008; test: (§1) Cytotoxicity against African green monkey Vero E6 cells assessed as cell viability at 5 uM incubated for 48 hrs by MTT assay; type: toxicity, cell-based; settings: chlorocebus sabaeus, vero c1008, 48 h, 5 µM
[3] = test system: SARS-CoV-2; test: (§2) Antiviral activity against SARS CoV-2 Wuhan infected in African green monkey Vero E6 cells assessed as inhibition of viral replication pretreated for 15 mins followed by compound removal and induction of viral infection for 1 hr and subsequent removal of inoculum and further addition of media containing compound measured after 24 hrs by cell-based ELISA; type: functional, organism-based; settings: for IC50: Severe acute respiratory syndrome coronavirus 2, Wuhan, Vero C1008
[4] = test system: SARS-CoV-2; test: as §2, with “virus inactivation at 5 uM” for “inhibition of viral replication”, “48” for “24”, “RT-qPCR analysis relative to control” for “cell-based ELISA”; type: functional, Severe acute respiratory syndrome coronavirus 2; settings: time 48.25 hrs
[5] = Microsomal stability in human liver microsomes assessed as half life at 100 uM preincubated for 15 mins followed by NADPH addition measured up to 60 mins by LC-MS/MS analysis; type: ADME, Microsome; settings: time < 75 min
[6] = Microsomal stability in human liver microsomes assessed as compound remaining at 100 uM preincubated for 15 mins followed by NADPH addition measured after 60 mins by LC-MS/MS analysis; type: ADME, Microsome; settings: time 75 min, read-out: Stability
[7] = Stability in human plasma assessed as compound remaining at 2 uM measured after 2 hrs by LC-MS/MS analysis; type: ADME, cell-free; settings: read-out: Stability
[8] = Microsomal stability in mouse liver microsomes assessed as intrinsic clearance measured per mg protein at 100 uM preincubated for 15 mins followed by NADPH addition measured up to 60 mins by LC-MS/MS analysis; type: ADME, Microsome; settings: time < 75 min, read-out: CLH
[9] = Stability in human plasma assessed as half life at 2 uM measured up to 120 mins by LC-MS/MS analysis; type: ADME, cell-free
[10] = Microsomal stability in mouse liver microsomes assessed as half life at 100 uM preincubated for 15 mins followed by NADPH addition measured up to 60 mins by LC-MS/MS analysis; type: ADME, Microsome; settings: time < 75 min
[11] = molecular target: Voltage-gated inwardly rectifying potassium channel KCNH2 (Homo sapiens, UniProt Q12809); test: Inhibition of hERG extracted from membrane (unknown origin) incubated for 4 hrs by fluorescence polarization assay; type: toxicity, cell membranes
Sequence of Voltage-gated inwardly rectifying potassium channel KCNH2 (Q12809 whole entry): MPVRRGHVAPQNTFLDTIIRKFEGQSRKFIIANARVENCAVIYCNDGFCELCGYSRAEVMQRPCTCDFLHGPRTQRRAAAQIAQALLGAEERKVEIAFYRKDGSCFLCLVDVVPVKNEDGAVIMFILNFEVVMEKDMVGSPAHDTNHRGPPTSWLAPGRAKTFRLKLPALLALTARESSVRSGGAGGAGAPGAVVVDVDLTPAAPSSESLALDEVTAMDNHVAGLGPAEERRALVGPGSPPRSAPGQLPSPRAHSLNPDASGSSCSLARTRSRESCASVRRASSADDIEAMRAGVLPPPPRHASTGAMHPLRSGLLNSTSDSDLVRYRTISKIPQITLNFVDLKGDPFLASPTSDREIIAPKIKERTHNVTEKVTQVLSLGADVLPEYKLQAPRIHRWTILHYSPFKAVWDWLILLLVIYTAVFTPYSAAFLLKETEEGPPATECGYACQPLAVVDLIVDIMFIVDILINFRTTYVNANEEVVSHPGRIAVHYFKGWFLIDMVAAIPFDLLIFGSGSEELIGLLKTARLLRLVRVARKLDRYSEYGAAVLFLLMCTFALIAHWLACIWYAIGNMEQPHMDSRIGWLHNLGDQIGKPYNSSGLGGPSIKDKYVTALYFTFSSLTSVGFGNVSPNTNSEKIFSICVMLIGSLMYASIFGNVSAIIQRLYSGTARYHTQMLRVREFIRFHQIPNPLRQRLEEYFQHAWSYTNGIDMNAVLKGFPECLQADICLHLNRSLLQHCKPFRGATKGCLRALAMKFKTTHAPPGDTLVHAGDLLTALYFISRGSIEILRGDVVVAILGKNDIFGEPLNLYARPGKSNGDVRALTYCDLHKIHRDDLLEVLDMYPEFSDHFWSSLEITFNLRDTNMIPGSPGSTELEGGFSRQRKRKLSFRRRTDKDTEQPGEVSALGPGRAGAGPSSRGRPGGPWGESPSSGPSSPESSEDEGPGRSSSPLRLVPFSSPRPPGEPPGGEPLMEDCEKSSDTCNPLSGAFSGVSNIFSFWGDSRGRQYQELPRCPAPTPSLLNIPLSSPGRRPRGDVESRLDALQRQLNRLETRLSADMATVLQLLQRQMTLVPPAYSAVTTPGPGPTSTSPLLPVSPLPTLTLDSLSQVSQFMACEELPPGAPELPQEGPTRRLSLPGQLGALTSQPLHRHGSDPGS

[12] = Microsomal stability in human liver microsomes assessed as intrinsic clearance measured per mg protein at 100 uM preincubated for 15 mins followed by NADPH addition measured up to 60 mins by LC-MS/MS analysis; type: ADME, Microsome; settings: time < 75 min, read-out: CLH
[13] = Stability in mouse plasma assessed as half life at 2 uM measured up to 120 mins by LC-MS/MS analysis; type: ADME, cell-free
[14] = Microsomal stability in mouse liver microsomes assessed as compound remaining at 100 uM preincubated for 15 mins followed by NADPH addition measured after 60 mins by LC-MS/MS analysis; type: ADME, Microsome; settings: time 75 min, read-out: Stability
[15] = Lipophilicity, LogD of compound in sodium phosphate buffer/n-octanol incubated for 3 hrs by LC-UV analysis; type: physicochemical
[16] = Stability in mouse plasma assessed as compound remaining at 2 uM measured after 2 hrs by LC-MS/MS analysis; type: ADME, cell-free; settings: read-out: Stability
[17] = test system: SARS-CoV-2; test: as §2, with “virus inactivation at 1 uM” for “inhibition of viral replication”, “48” for “24”, “RT-qPCR analysis relative to control” for “cell-based ELISA”; type: functional
[18] = as §1; type: toxicity, cell-based, Vero C1008; settings: chlorocebus sabaeus, Vero E6 cells, read-out: Activity
[19] = Stability in mouse plasma assessed as compound remaining at 2 uM measured after 60 mins by LC-MS/MS analysis; type: ADME, cell-free; settings: read-out: Stability
[20] = Stability in human plasma assessed as compound remaining at 2 uM measured after 60 mins by LC-MS/MS analysis; type: ADME, cell-free; settings: read-out: Stability

SMILES	Ratio IC50 [1]	Activity [2]	IC50 [3]	Activity [4]	half-life at 100 µM [5]	remaining at 1 h, 100 µM [6]	microsomal CLint at 100 µM [8]	half-life at 2 µM [9]	half-life at 100 µM [10]	IC50 [11]	microsomal CLint at 100 µM [12]	half-life at 2 µM [13]	remaining at 1 h, 100 µM [14]	logD at 3 h [15]	remaining at 1 h, 2 µM [19]	remaining at 1 h, 2 µM [20]	also measured
Cc1ccc(Cn2c(CSc3c(C)cc(C)cc3C)c(C(=O)NC3CCN(Cc4ccccc4)CC3)c3cc(O)c(Br)cc32)cc1	~13	Non-toxic	1500 nM	–	–	–	–	–	–	–	–	–	–	–	–	–	–
CCOC(=O)c1c(CSc2ccc(C)cc2C)n(Cc2cccc3ccccc23)c2cc(Br)c(O)cc12	–	Non-toxic	240 nM	<90%	> 2 h	96.7%	> 14.4 µL/min/mg	> 4 h	> 2 h	> 30000 nM	20.2 µL/min/mg	3 h	75.5%	3.76	–	–	remaining at 2 h, 2 µM [7]: 69.1%; remaining at 2 h, 2 µM [16]: 70.3%
CCOC(=O)c1c(CSc2ccc(F)cc2C)n(C)c2cc(Br)c(O)cc12	–	–	–	75%	–	–	–	–	–	–	–	–	–	–	–	–	Activity ([17]; Severe acute respiratory syndrome coronavirus 2, time 48.25 hrs): Not active; No Significant Effect Observed; viability at 48 h, 5 µM [18]: 70%; inhibition ([3]; Severe acute respiratory syndrome coronavirus 2, time 24.25 hrs): inactive
Cc1ccc(Cn2c(CSc3c(C)cc(C)cc3C)c(C(=O)NC(C)(C)C)c3cc(O)c(Br)cc32)cc1	~13	Non-toxic	560 nM	–	0.162 h	1.1%	143 µL/min/mg	> 2 h	0.0955 h	> 30000 nM	242 µL/min/mg	> 2 h	0.73%	3.54	96.9%	116%	–
Cc1ccc(Cn2c(CSc3c(C)cc(C)cc3C)c(C(=O)NC3CCN(C(C)C)CC3)c3cc(O)c(Br)cc32)cc1	~13	Non-toxic	750 nM	–	1.5 h	59.4%	9.64 µL/min/mg	> 4 h	2 h	10600 nM	15.5 µL/min/mg	> 4 h	80.1%	3.95	74.8%	57.6%	–
CCOC(=O)c1c(CSc2ccc(C)cc2C)n(Cc2ccc(C)cc2)c2cc(Br)c(O)c(CN(C)C)c12	–	Non-toxic	1500 nM	<99.9%	0.0452 h	0.31%	273 µL/min/mg	> 2 h	0.0846 h	6030 nM	512 µL/min/mg	> 2 h	0.314%	3.98	–	–	Activity ([17]; time 48.25 hrs): <99.9%; remaining at 2 h, 2 µM [7]: 115%; remaining at 2 h, 2 µM [16]: 88.4%
CCOC(=O)c1c(CSc2c(C)cc(C)cc2C)n(Cc2ccc(C)cc2)c2cc(Br)c(O)cc12	–	Non-toxic	1500 nM	>99%	0.288 h	8.56%	80.2 µL/min/mg	> 2 h	0.119 h	> 30000 nM	193 µL/min/mg	> 2 h	1.23%	3.03	111%	87.8%	–
CN(C)CCCCNC(=O)c1c(CSc2ccc(F)cc2)n(C)c2cc(Br)c(O)cc12	–	Non-toxic	1800 nM	–	0.52 h	28%	25.8 µL/min/mg	< 2 h	0.448 h	9850 nM	22.2 µL/min/mg	1 h	21%	1.91	41.6%	70.6%	–

Reference: ChEMBL document CHEMBL6134895, “Strategic Design and Optimization of Umifenovir Analogues: Balancing Antiviral Efficacy and hERG Toxicity against SARS-CoV-2” (J Med Chem, 2025)
